Data from paper PMC5318888, “SAMHD1 enhances nucleoside-analogue efficacy against HIV-1 in myeloid cells” (Scientific Reports, 2017).

Molecular target: T1, SAMHD1 (Homo sapiens, UniProt Q9Y3Z3)
T1 construct: The final concentrations were 100 nM SAMHD1(115–626), 10 nM Ppx1; strep-tag; made in house
Assay: SAMHD1 triphosphohydrolase continuous coupled-enzyme assay (MDCC-PBP phosphate biosensor, Ppx1)
Assay type: biochemical
Settings: for inhibition of SAMHD1 GTP-activated TTP hydrolysis / activation of SAMHD1 TTP hydrolysis: 0.3 mM TTP; for inhibition of SAMHD1 GTP-activated TTP hydrolysis: 0.1 mM GTP; for inhibition of SAMHD1 GTP-activated TTP hydrolysis / hydrolysis by SAMHD1 (substrate): 0.3 mM analogue triphosphate; for activation of SAMHD1 TTP hydrolysis: 0.1 mM analogue triphosphate as activator; for hydrolysis by SAMHD1 (substrate): without and with 0.1 mM GTP
Excerpt: SAMHD1 hydrolysis, activation and inhibition by nucleotide analogues was quantified using a continuous coupled assay employing the fluorescent phosphate biosensor MDCC-PBP to measure phosphate release from combined SAMHD1 triphosphohydrolase and S. cerevisiae Ppx1 exopolyphosphatase activity, described previously. SAMHD1 and Ppx1 were expressed as strep-tagged fusion proteins and purified as described previously. Didanosine triphosphate (ddI-TP) and dideoxy ATP (ddATP) were from Trilink Biotechnologies, Stavudine triphosphate (d4T-TP) was from Jena biosciences and Chemcyte. Abacavir triphosphate and Carbovir triphosphate were chemically synthesised in house from abacavir and carbovir as described above. Experiments were performed in 20 μL reaction volumes in 384-well low-protein-binding microplates (Corning, USA). In typical experiments, solutions containing SAMHD1, Ppx1, MDCC-PBP and activator (GTP, ddI-TP or d4T-TP), or activator plus inhibitor, were incubated for 5 min in assay buffer (20 mM Tris pH 8.0, 150 mM NaCl, 5 mM MgCl2 and 2 mM TCEP) at 25 °C before the reaction was initiated by the addition of substrate (TTP, ddI-TP or d4T-TP). The final concentrations were 100 nM SAMHD1(115–626), 10 nM Ppx1, 2.5 μM BSA, 40 μM MDCC-PBP (80 μM in ABC-TP and CBV-TP assays). Activator, substrate and inhibitor were added at concentrations described below. The fluorescence intensity increase resulting from the phosphate-product binding to MDCC-PBP was recorded at 430 nm excitation and 465 nm emission over 10–30 min in a Clariostar multiwell plate reader (BMG). Steady-state rates were obtained from the fluorescence time courses by fitting a linear function with maximal slope using the Mars software (BMG). Apparent dissociation constant of ddI-TP binding (KS), catalytic constant (kcat), maximal rate (kmax) and the ddI-TP concentration at half maximal activation (Ka) were determined by nonlinear least squares fitting using a Hill-function in the software package Grafit 7.0.3 (Erithacus software, UK). All measurements were performed at least in triplicate and data are represented as mean ± SEM.

[1] = 1 mM TTP, varying ddI-TP, lower estimate
[2] = Hill equation fit, 0.2 mM GTP, mean ± SEM

T1 sequence (Q9Y3Z3 115-626): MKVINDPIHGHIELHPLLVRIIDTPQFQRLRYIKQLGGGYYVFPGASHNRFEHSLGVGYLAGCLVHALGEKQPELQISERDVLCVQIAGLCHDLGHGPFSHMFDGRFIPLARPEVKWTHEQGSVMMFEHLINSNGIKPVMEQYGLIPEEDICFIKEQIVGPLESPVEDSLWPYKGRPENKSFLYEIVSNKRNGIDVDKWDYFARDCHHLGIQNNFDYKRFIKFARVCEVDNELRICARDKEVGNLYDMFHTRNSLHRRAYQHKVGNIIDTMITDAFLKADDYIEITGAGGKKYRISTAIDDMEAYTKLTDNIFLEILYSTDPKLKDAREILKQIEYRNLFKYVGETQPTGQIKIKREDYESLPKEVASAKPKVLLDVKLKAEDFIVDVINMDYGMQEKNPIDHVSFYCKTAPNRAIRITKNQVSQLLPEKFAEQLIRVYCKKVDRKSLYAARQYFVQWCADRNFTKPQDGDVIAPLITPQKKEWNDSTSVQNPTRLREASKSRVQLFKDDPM

hydrolysis by SAMHD1 (substrate) | SMILES | inhibition of SAMHD1 GTP-activated TTP hydrolysis | activation of SAMHD1 TTP hydrolysis | increase of ddI-TP hydrolysis in the presence of activating GTP (0.3 mM ddI-TP, 0.1 mM GTP vs no GTP) | Ka, ddI-TP concentration at half maximal activation of TTP hydrolysis [1] [µM] | maximal rate kmax of TTP hydrolysis activated by ddI-TP [1] [s⁻¹] | apparent binding constant KS of ddI-TP hydrolysis (Hill equation fit, 0.2 mM GTP (saturating activator), mean ± SEM) [µM] | Hill coefficient n of ddI-TP hydrolysis [2] | catalytic constant kcat of ddI-TP hydrolysis [2] [s⁻¹] | ddI-TP hydrolysis rate relative to TTP hydrolysis rate (fold slower) (in the presence of 0.1 mM GTP)
no hydrolysis by SAMHD1 | Nc1ncnc2c1ncn2[C@H]1CC[C@@H](CO[P@@](=O)(O)O[P@](=O)(O)OP(=O)(O)O)O1 [ddATP, dideoxy ATP] | no measurable activation or inhibition | no measurable activation or inhibition | – | – | – | – | – | – | –
little or no hydrolytic activity | Cc1cn([C@H]2C=C[C@@H](COP(=O)(O)OP(=O)(O)OP(=O)(O)O)O2)c(=O)[nH]c1=O [d4T-TP, stavudine triphosphate] | not a SAMHD1 inhibitor or activator | not a SAMHD1 inhibitor or activator | – | – | – | – | – | – | –
not hydrolysed by SAMHD1 | Nc1nc(=O)c2ncn([C@H]3C=C[C@@H](COP(=O)(O)OP(=O)(O)OP(=O)(O)O)C3)c2[nH]1 [CBV-TP, Carbovir 5′-triphosphate] | neither ABC-TP nor CBV-TP displayed any activation or inhibition of SAMHD1 | neither ABC-TP nor CBV-TP displayed any activation or inhibition of SAMHD1 | – | – | – | – | – | – | –

Second part, the molecule before the results:

SMILES | hydrolysis by SAMHD1 (substrate) | inhibition of SAMHD1 GTP-activated TTP hydrolysis | activation of SAMHD1 TTP hydrolysis | increase of ddI-TP hydrolysis in the presence of activating GTP (0.3 mM ddI-TP, 0.1 mM GTP vs no GTP) | Ka, ddI-TP concentration at half maximal activation of TTP hydrolysis [1] [µM] | maximal rate kmax of TTP hydrolysis activated by ddI-TP [1] [s⁻¹] | apparent binding constant KS of ddI-TP hydrolysis (Hill equation fit, 0.2 mM GTP (saturating activator), mean ± SEM) [µM] | Hill coefficient n of ddI-TP hydrolysis [2] | catalytic constant kcat of ddI-TP hydrolysis [2] [s⁻¹] | ddI-TP hydrolysis rate relative to TTP hydrolysis rate (fold slower) (in the presence of 0.1 mM GTP)
O=c1[nH]cnc2c1ncn2[C@H]1CC[C@@H](COP(=O)(O)OP(=O)(O)OP(=O)(O)O)O1 [ddI-TP, didanosine triphosphate] | hydrolysed by SAMHD1 even in the absence of GTP | no significant inhibitory effects | activates SAMHD1 triphosphohydrolase activity, but to a much lesser degree than the natural activator, GTP | three-fold | > 300 | > 0.1 | 226 ± 12 | 1.7 ± 0.1 | 0.24 ± 0.04 | around six-fold
Nc1nc(NC2CC2)c2ncn([C@H]3C=C[C@@H](COP(=O)(O)OP(=O)(O)OP(=O)(O)O)C3)c2n1 [ABC-TP, abacavir-5′-triphosphate] | not hydrolysed by SAMHD1 | neither ABC-TP nor CBV-TP displayed any activation or inhibition of SAMHD1 | neither ABC-TP nor CBV-TP displayed any activation or inhibition of SAMHD1 | – | – | – | – | – | – | –
